In publication PMC13195669, “GPR3 Ligands Discovered through Combined Virtual and Conformational Biosensor-Based Screening” (Journal of the American Chemical Society, 2026):

Biological target: T1, S1P receptor 1 (S1PR1) (Homo sapiens, UniProt P21453)
T1 construct: expressed in transfected cells; host or cells: HEK293A, transient
Assay: cAMP GloSensor 22F, agonist-stimulated S1PR1
Assay type: cell-based
Settings: preincubation with 100 μM or 10 μM; 10 µM forskolin
Description: Next, we used the classical cAMP GloSensor technology to assess the target selectivity profile of 33. […] In addition, we tested the effects of 33 on cAMP changes mediated by agonist-stimulated GPCRs phylogenetically close to GPR3 and coupling to Gs or Gi/o proteins.
BRET-based GPCR conformational sensor experiments
Cells expressing the conformational GPCR biosensors were grown for 24 h (stable cells) or 48 h (transiently transfected cells) in white 96-well plates and washed with 100 µl of HBSS. After washing, cells were incubated for 2 minutes with a 1/1000 solution of the furimazine stock solution (Promega; cat. no. N1662). Three baseline BRET reads were recorded and averaged prior to the addition of serial dilutions of ligands or veh icle control and subsequent BRET reads. […] BRE T donor emission was quantified with a 470/80 nm monochromator. […] Experiments were carried out using a CLARIOstar plate reader.
FRET- and BRET-based measurements of cAMP levels and Gs dissociation/reassociation Transfected cells grown in black 96-well plates were washed twice with 100 µl of HBSS 48 h after transfection and incubated with HBSS. […] Three baseline FRET/BRET reads were recorded and averaged prior to the addition of serial dilutions of ligands or vehicle control and sub-sequent FRET/BRET reads. […] FRET donor emission was quantified with a 480/10 nm filter. […]
Luminescence measurement using the cAMP GloSensor™ 22F […]

T1 sequence (P21453 whole entry, species assumed): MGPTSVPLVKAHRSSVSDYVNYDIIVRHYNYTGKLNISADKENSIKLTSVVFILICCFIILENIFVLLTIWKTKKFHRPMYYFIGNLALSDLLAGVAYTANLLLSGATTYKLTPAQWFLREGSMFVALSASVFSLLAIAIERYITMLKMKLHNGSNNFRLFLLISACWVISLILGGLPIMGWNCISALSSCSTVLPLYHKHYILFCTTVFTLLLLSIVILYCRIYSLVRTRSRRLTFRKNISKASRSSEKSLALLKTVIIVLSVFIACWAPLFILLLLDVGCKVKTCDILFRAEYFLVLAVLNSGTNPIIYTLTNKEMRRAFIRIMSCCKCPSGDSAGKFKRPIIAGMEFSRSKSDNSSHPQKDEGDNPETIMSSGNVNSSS

SMILES: N=c1n(Cc2ccccc2)c2ccccc2n1CC1CC1 [compound 33]
- effect on agonist-induced cAMP change mediated by S1PR1: neither 100 μM nor 10 μM 33 significantly altered
